# Read-outs that look alike come from different tables or passages of the source.
# Columns and labels:
# [1] = test system: Tiger shrimp (Penaeus Monodon); assay: Shrimp feeding trial with phytol supplemented diet; assay type: in vivo; settings: 2% phytol diet, 4 weeks
# [2] = test system: ROSS 308 broiler chicks; assay: Broiler feeding trial with phytol supplemented feed; assay type: in vivo, chicken; settings: 42 days
# Method: (§1) In the present specification the level of the PPAR/RXR heterodimer activator is expressed as a percentage of total FAME fatty acids. These total FAME fatty acids comprise those fatty acids with a linear chain of at least 12 carbons and are measured by the so-called FAME technique, which is well known for the skilled person and wherein, first, fatty acid methyl esters are prepared which are, subsequently, analysed via gas chromatography. The FAME procedure used for determining the results obtained by the present invention was as follows. Lipids were extracted from the samples using a dissolving solution that is specific to each sample type. Nonadecanoic acid (19:0) was added as an internal standard. The two-step methylation procedure consisted of using a basic reagent NaOH/methanol followed by an acid reagent HCI/methanol. The fatty acid methyl esters (FAME) were analyzed by GC (HP 6890, Hewlett-Packard, Brussels, Belgium) using a CP-Sil88 column for FAME (100 m×250 μm×0.25 μm) (Chrompack, Middelburg, The Netherlands). The GC conditions were as adapted to each sample type. Peaks were identified by comparison of retention times with those of the corresponding standards (Sigma, Botnew, Belgium; Nu-Chek-Prep, Elysian, M N). Identification of the peaks included fatty acids between 12:0 and 22:6 and 5 different CLA isomers and phytanic acid and pristanic acid.
# ROSS 308 broiler chicks were raised, lege artis, on an ad libitum diet, containing phytol at 2% by weight of feed that, characteristically, contains about 10% of humidity. The chicks consumed an average of about 0.1 kg dry weight of the feed per day. The phytol in the diet replaced 2% of the soybean oil included in feeds formulated based on the INVE Nutritional Requirement standard formula for a grower feed (formula 120). Please refer to the following tables for the feed formula and for its chemical composition.
# The animals were slaughtered after 42 days and their tissues sampled for analysis.
# [3] = test system: laboratory animals; settings: Steinberg 1966, cited from earlier work
# [4] = test system: ISABROWN layers; assay: Layer feeding trial with phytol supplemented feed; assay type: in vivo; settings: 2% phytol in feed, compared with standard layer diet
# [5] = test system: Hybrid boars; assay: Pork finishing trial with phytol sprayed feed; assay type: in vivo, pig
# Method: as §1
# Hybrid boars weighing in at about 80 kg were kept lege artis and fed a standard finishing granulated feed sprayed on with phytol at a level of 2% of feed weight. The feed was formulated and produced by Schatteman in Wetteren, Belgium and contained on average about 7% of humidity. On spraying, the feed readily absorbed this oily substance. […] Tissue samples were taken and the carcass quality assessed. The carcasses were further butchered in the usual fashion to chops, loins, sausages and the like and the meat quality of the prime cuts was assessed.
# The quality was assessed objectively using the following parameters: % meat on the carcass, type-index, meat class, meat moisture, meat color, meat temperature and meat pH change.
# [6] = test system: Carp; settings: max 1% CLA in diet, Choi 1999; cited from earlier work
# [7] = biological target: T1, PPAR gamma (Homo sapiens, UniProt P37231); settings: Houseknecht 1998, Yu 2002; cited from earlier work
# T1 sequence (P37231 1-505): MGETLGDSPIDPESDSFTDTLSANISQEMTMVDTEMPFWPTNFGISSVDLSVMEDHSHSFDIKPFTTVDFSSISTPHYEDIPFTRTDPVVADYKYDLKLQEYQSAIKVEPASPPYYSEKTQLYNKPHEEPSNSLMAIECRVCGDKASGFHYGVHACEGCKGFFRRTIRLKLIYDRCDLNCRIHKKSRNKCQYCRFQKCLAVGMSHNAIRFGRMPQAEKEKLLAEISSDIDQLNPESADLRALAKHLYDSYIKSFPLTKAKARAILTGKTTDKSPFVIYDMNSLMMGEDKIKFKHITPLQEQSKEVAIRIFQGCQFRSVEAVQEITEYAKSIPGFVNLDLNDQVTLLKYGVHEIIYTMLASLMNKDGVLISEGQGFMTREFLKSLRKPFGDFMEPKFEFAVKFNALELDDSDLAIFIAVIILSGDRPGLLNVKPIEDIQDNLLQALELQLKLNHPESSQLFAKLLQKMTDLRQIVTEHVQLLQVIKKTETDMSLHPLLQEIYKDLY
# [8] = test system: egg yolk; settings: cited from earlier work
# [9] = test system: lean pork; settings: cited from earlier work
# [10] = biological target: T2, PPAR alpha (Homo sapiens, UniProt Q07869); settings: cited from earlier work
# T2 sequence (Q07869 1-468): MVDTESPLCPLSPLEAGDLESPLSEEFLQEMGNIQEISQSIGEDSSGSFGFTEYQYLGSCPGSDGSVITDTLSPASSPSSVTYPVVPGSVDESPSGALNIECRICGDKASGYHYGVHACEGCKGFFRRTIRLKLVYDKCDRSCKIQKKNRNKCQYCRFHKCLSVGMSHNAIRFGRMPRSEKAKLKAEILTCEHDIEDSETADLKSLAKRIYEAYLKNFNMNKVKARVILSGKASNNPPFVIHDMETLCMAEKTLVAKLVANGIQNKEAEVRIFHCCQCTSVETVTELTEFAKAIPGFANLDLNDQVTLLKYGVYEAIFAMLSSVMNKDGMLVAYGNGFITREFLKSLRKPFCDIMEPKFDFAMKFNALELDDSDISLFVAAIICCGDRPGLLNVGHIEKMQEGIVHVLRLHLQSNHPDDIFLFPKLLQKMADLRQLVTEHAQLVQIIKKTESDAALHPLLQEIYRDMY
# [11] = test system: striped bass; settings: max 0.6% CLA in diet, Twibell 2000; cited from earlier work
# [12] = test system: Chicken meat; settings: max 1.5% CLA in diet, Szymczyk 2001; cited from earlier work
# [13] = test system: yellow perch; settings: max 0.6% CLA in diet, Twibell 2001; cited from earlier work
# [14] = test system: RXR; settings: cell research; Kitareewan 1996; cited from earlier work
compound,measurement,setting,value
C/C(=C\CO)CCC[C@H](C)CCC[C@H](C)CCCC(C)C [phytol],survival rate,[1]; vs standard diet,no difference
same,growth (weight at end of feeding trial),[1]; start 0.7 g,2.05 g
same,mortality or morbidity,"[2]; 2% phytol in feed, compared with standard broiler feed",no difference
same,PhA average level in breast meat,"[2]; ROSS 308, chicken, in vivo",2.6 % of total fatty acids
same,"content of PhA in the breast meat, one subgroup","[2]; ROSS 308, chicken, in vivo",around 1.9%
same,"content of PhA in the breast meat, other subgroup","[2]; ROSS 308, chicken, in vivo",around 3.6%
same,"morbidity (growth retardation, weight loss and lethargy)",[3]; from levels of supplementation of 1% of diet weight on,substantial morbidity
same,mortality,[3]; levels of 5% of diet weight,serious mortality rates
same,mortality nor morbidity,[4],no difference
same,sickness or death,"[5]; 2% phytol feed, entire finishing period",no animals got sick or died
same,content of PhA and PrA in the pork meat,"[5]; male, hybrid, pig, in vivo, 1 month",2.3 % of total FAME fatty acids
same,feeding behavior or level of activity,"[5]; pig, in vivo",no difference
conjugated linoleic acid [CLA],max of TFA (maximum level of CLA in product as percent of total fatty acids),[6],13%
same,PPAR gamma agonism,[7],agonist of PPAR gamma
same,max of TFA (maximum level of CLA in product as percent of total fatty acids),"[8]; max 2% CLA in diet, Shafer 2001",7.95%
same,max of TFA (maximum level of CLA in product as percent of total fatty acids),"[8]; max 3% CLA in diet, Raes 2002",5.3%
same,max of TFA (maximum level of CLA in product as percent of total fatty acids),"[8]; max 5% CLA in diet, Chamruspollert 1999",11.2%
same,max of TFA (maximum level of CLA in product as percent of total fatty acids),"[9]; lean pork (>100 kg), max 1% CLA in diet, Thiel-Cooper 2001",0.7%
same,max of TFA (maximum level of CLA in product as percent of total fatty acids),"[9]; lean pork (>100 kg), max 5% CLA in diet, Joo 2002",1.6%
same,max of TFA (maximum level of CLA in product as percent of total fatty acids),"[9]; lean pork (up to 55 kg), max 1.4% CLA in diet, Ramsey 2001",3.2%
same,PPAR alpha agonism,[10]; Moya-Camarena 1999,agonist of PPAR alpha
same,max of TFA (maximum level of CLA in product as percent of total fatty acids),[11],8.1%
same,max of TFA (maximum level of CLA in product as percent of total fatty acids),[12],10.27%
same,max of TFA (maximum level of CLA in product as percent of total fatty acids),[13],2.92%
"CC(C)CCC[C@@H](C)CCC[C@@H](C)CCCC(C)CC(=O)O (some centres unmarked) [PhA, tetramethylhexadecanoic acid]",PPAR alpha activation,"[10]; physiologic concentrations, Ellinghaus 1999",potent activator of PPAR alpha
same,RXR ligand,[14],ligand of RXR

# Reference: US20060167096A1, “Livestock products with an increased ppar/rxr heterodimer activator level” (priority 2003, published 2006)
